Test [1] has as its target T1, Mtb EF-G1 (Elongation factor G1) (Mycobacterium tuberculosis, UniProt P9WNM7). The test is described as follows: SPR (Biacore T200), […] steady-state affinity fit. Type of test: binding. Set-up: gene fusA; recombinant Mtb EF-G1 with a C-terminal His tag, immobilized on CM5 chip. On the technique in general: In SPR one partner is held on a chip, and binding of the other changes the refractive index at the surface.

The target of test [2] is T1, Mtb EF-G1 (Elongation factor G1). The experiment in a line: ITC at […] °C; crystal structure of the complex ([…] Å, SeMet SAD). It counts as binding. Set-up: gene fusA; recombinant Mtb EF-G1 with a C-terminal His tag.

T1 sequence (P9WNM7 whole entry): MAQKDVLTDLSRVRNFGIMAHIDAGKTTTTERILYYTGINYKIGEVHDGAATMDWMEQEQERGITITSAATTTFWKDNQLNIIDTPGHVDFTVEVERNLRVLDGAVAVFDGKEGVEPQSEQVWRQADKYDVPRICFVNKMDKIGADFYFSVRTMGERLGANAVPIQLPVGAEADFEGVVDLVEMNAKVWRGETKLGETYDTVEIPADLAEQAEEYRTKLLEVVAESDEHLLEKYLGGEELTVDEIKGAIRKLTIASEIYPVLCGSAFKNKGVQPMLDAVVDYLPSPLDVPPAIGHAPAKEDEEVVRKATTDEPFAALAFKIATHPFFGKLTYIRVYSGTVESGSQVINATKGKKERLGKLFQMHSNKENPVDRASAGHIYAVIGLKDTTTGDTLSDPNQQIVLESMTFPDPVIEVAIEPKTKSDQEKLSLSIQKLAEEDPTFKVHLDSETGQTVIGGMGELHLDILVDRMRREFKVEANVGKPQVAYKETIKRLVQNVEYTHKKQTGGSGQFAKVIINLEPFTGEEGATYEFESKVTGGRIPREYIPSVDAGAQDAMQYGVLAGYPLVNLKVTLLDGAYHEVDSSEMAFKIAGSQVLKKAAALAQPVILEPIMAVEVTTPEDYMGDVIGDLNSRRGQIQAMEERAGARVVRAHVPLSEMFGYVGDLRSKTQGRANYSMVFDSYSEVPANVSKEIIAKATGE

The Kd is a measure of binding affinity in units of concentration. As for `CC(=O)O[C@H]1C[C@@]2(C)[C@@H](C[C@@H](O)[C@H]3[C@@]4(C)CC[C@@H](O)[C@@H](C)[C@@H]4CC[C@@]32C)/C1=C(\CCC=C(C)C)C(=O)O` [FA, Fusidic acid], in test [1], the Kd was found to be 3.54 µM.

On to `Nc1nc2c(ncn2[C@@H]2O[C@H](COP(=O)(O)OP(=O)(O)O)[C@@H](O)[C@H]2O)c(=O)[nH]1` [GDP], for which the Kd in test [2] came to 11.5 ± 0.3 µM.

(Values after article PMC8446442, “Crystal Structure of Mycobacterium tuberculosis Elongation Factor G1” (Frontiers in Molecular Biosciences, 2021).)
